Laboratory results published in the supplement of paper PMC4449167.
± gives the standard deviation of the averaged measurements.

Test system: WB-F344
Test: gap junctional intercellular communication (dye spread) relative to vehicle control (fraction of control); higher = more gap junction communication (less inhibition)
Description: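 Confluent WB-F344 rat liver epithelial cells were pretreated with vehicle, D609 (PC-PLC inhibitor, 50 µM, 20 min), U0126 (MEK1/2 inhibitor, 20 µM, 30 min) or resveratrol (100 µM, 15 min), then exposed to a GJIC-dysregulating chemical at the listed dose and time. GJIC was measured by scalpel loading-dye transfer with Lucifer Yellow (3 min), and the dye-spread area was quantified in ImageJ as a fraction of the vehicle control (FOC). Individual values come from at least 3 independent experiments.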

[1] = dose note: (70 uM), pretreatment: D609+GJIC dysreg.
[2] = dose note: (70 uM), pretreatment: GJIC dysreg.
[3] = dose note: (70 uM), pretreatment: RES+GJIC dysreg.
[4] = dose note: (70 uM), pretreatment: U0126+GJIC dysreg.
[5] = dose note: (100 uM), pretreatment: D609+GJIC dysreg.
[6] = dose note: (100 uM), pretreatment: GJIC dysreg.
[7] = dose note: (100 uM), pretreatment: RES+GJIC dysreg.
[8] = dose note: (100 uM), pretreatment: U0126+GJIC dysreg.
[9] = pretreatment: D609+GJIC dysreg.
[10] = pretreatment: U0126+GJIC dysreg.

| Compound | gap junctional intercellular communication [9] | gap junctional intercellular communication (pretreatment: GJIC dysreg.) | gap junctional intercellular communication (pretreatment: RES+GJIC dysreg.) | gap junctional intercellular communication [10] | other results |
| --- | --- | --- | --- | --- | --- |
| CCCCC/C=C\C/C=C\C/C=C\C/C=C\CCCC(=O)O [Arachidonic acid] (compound abbreviation / co-treatment: AA, exposure (dose, time): 70-100 µM, 15 min) | – | – | – | – | gap junctional intercellular communication [1]: 0.164; gap junctional intercellular communication [2]: 0.196; gap junctional intercellular communication [3]: 0.193; gap junctional intercellular communication [4]: 0.244; gap junctional intercellular communication (dose note: (75 uM), pretreatment: D609+GJIC dysreg.): 0.2; gap junctional intercellular communication (dose note: (75 uM), pretreatment: GJIC dysreg.): 0.2; gap junctional intercellular communication (dose note: (75 uM), pretreatment: RES+GJIC dysreg.): 0.207; gap junctional intercellular communication (dose note: (75 uM), pretreatment: U0126+GJIC dysreg.): 0.216; gap junctional intercellular communication (dose note: (90 uM), pretreatment: D609+GJIC dysreg.): 0.29 ± 0.055; gap junctional intercellular communication (dose note: (90 uM), pretreatment: GJIC dysreg.): 0.279 ± 0.058; gap junctional intercellular communication (dose note: (90 uM), pretreatment: RES+GJIC dysreg.): 0.25 ± 0.032; gap junctional intercellular communication (dose note: (90 uM), pretreatment: U0126+GJIC dysreg.): 0.347 ± 0.025; gap junctional intercellular communication [5]: 0.196; gap junctional intercellular communication [6]: 0.193; gap junctional intercellular communication [7]: 0.189; gap junctional intercellular communication [8]: 0.199 |
| CC(C)(OOC(C)(C)c1ccccc1)c1ccccc1 [Dicumylperoxide] (compound abbreviation / co-treatment: DiCuOOH, exposure (dose, time): 50 µM, 15 min) | 0.884 ± 0.058 | 0.386 ± 0.088 | 0.829 ± 0.081 | 0.324 ± 0.11 | – |
| CC(C)C[C@H](NC(=O)[C@H](CC(C)C)NC(=O)[C@H](Cc1ccccc1)NC(=O)[C@@H](N)CO)C(=O)N[C@@H](CCCN=C(N)N)C(=O)N[C@@H](CC(N)=O)C(=O)O [Thrombin receptor activator peptide-6] (compound abbreviation / co-treatment: TRAP-6, exposure (dose, time): 50 µM, 30 min) | 0.588 ± 0.089 | 0.4 ± 0.058 | 0.967 ± 0.04 | 1.05 ± 0.036 | – |
| Cc1cccc2c1Cc1ccccc1-2 [1-Methylfluoren] (compound abbreviation / co-treatment: 1-MeFlu, exposure (dose, time): 70 µM, 10 min) | 0.84 ± 0.13 | 0.266 ± 0.076 | 1 ± 0.17 | 0.318 ± 0.052 | – |
| Clc1ccc(C(c2ccccc2Cl)C(Cl)(Cl)Cl)cc1 (stereo unspecified) [1,1,1-Trichloro-2-(2-chlorophenyl)-2-(4-chlorophenyl)ethane] (compound abbreviation / co-treatment: DDT, exposure (dose, time): 30 µM,  20 min) | 0.832 ± 0.089 | 0.308 ± 0.053 | 0.777 ± 0.025 | 0.337 ± 0.082 | – |
| Cl[C@H]1[C@H](Cl)[C@@H](Cl)[C@@H](Cl)[C@H](Cl)[C@H]1Cl [Lindane] (compound abbreviation / co-treatment: Lindane, exposure (dose, time): 60 µM, 25 min) | 0.335 ± 0.046 | 0.282 ± 0.062 | 0.741 ± 0.048 | 0.695 ± 0.16 | – |
| CCCCCCCCCCCC(=O)OCC(O)CO (stereo unspecified) [1-Monolaurin] (compound abbreviation / co-treatment: Lau, exposure (dose, time): 150 µM, 10 min) | 0.245 ± 0.028 | 0.229 ± 0.026 | 0.245 ± 0.034 | 0.234 ± 0.034 | – |
| CC1(C)[C@@H](O)CC[C@]2(C)[C@H]3C(=O)C=C4[C@@H]5C[C@@](C)(C(=O)O)CC[C@]5(C)CC[C@@]4(C)[C@]3(C)CC[C@@H]12 [ß-Glycyrrhetinic acid] (compound abbreviation / co-treatment: BGA, exposure (dose, time): 30-50 µM, 15 min) | – | – | – | – | gap junctional intercellular communication (dose note: (30 uM), pretreatment: D609+GJIC dysreg.): 0.242 ± 0.036; gap junctional intercellular communication (dose note: (30 uM), pretreatment: GJIC dysreg.): 0.353 ± 0.03; gap junctional intercellular communication (dose note: (30 uM), pretreatment: RES+GJIC dysreg.): 0.302 ± 0.023; gap junctional intercellular communication (dose note: (30 uM), pretreatment: U0126+GJIC dysreg.): 0.344 ± 0.053; gap junctional intercellular communication (dose note: (50 uM), pretreatment: D609+GJIC dysreg.): 0.225 ± 0.034; gap junctional intercellular communication (dose note: (50 uM), pretreatment: GJIC dysreg.): 0.242 ± 0.042; gap junctional intercellular communication (dose note: (50 uM), pretreatment: RES+GJIC dysreg.): 0.243 ± 0.038; gap junctional intercellular communication (dose note: (50 uM), pretreatment: U0126+GJIC dysreg.): 0.269 ± 0.028 |
| Cc1nc2sccn2c(=O)c1CCN1CCC(=C(c2ccccc2)c2ccc(F)cc2)CC1 (compound abbreviation / co-treatment: R59022, exposure (dose, time): 30-50 µM, 10 min) | 0.848 ± 0.081 | 0.344 ± 0.13 | 0.867 ± 0.16 | 0.641 ± 0.11 | – |
| Cc1c2ccccc2c(C)c2ccccc12 [9,10-Dimethylanthracene] (compound abbreviation / co-treatment: 9,10-DiMeA, exposure (dose, time): 70-100 µM, 10 min) | – | – | – | – | gap junctional intercellular communication [1]: 0.888 ± 0.038; gap junctional intercellular communication [2]: 0.213 ± 0.06; gap junctional intercellular communication [3]: 0.744 ± 0.14; gap junctional intercellular communication [4]: 0.342; gap junctional intercellular communication [5]: 0.937 ± 0.033; gap junctional intercellular communication [6]: 0.317 ± 0.041; gap junctional intercellular communication [7]: 0.871 ± 0.15; gap junctional intercellular communication [8]: 0.356 ± 0.096 |
| O=C(O)C(F)(F)C(F)(F)C(F)(F)C(F)(F)C(F)(F)C(F)(F)C(F)(F)F [Perfluorooctanoic acid] (compound abbreviation / co-treatment: PFOA, exposure (dose, time): 80 µM, 10 min) | 0.661 ± 0.15 | 0.24 ± 0.054 | 0.743 ± 0.12 | 0.44 ± 0.12 | – |
| Cc1ccc2ccc3cccc4ccc1c2c34 [1-Methylpyrene] (compound abbreviation / co-treatment: 1-MePyr, exposure (dose, time): 70 µM, 10 min) | 0.956 ± 0.048 | 0.397 ± 0.072 | 0.815 ± 0.15 | 0.345 ± 0.094 | – |
| c1ccc2c(c1)-c1cccc3cccc-2c13 [Fluoranthene] (compound abbreviation / co-treatment: Fla, exposure (dose, time): 70 µM, 10 min) | 0.718 ± 0.11 | 0.245 ± 0.064 | 0.937 ± 0.23 | 0.285 ± 0.091 | – |
| O=C(O)C(F)(F)C(F)(F)C(F)(F)C(F)(F)C(F)(F)C(F)(F)C(F)(F)C(F)(F)C(F)(F)F [Perfluorodecanoic acid] (compound abbreviation / co-treatment: PFDA, exposure (dose, time): 50 µM, 20 min) | 0.46 ± 0.12 | 0.22 ± 0.033 | 0.225 ± 0.023 | 0.239 ± 0.046 | – |
| CCc1cccc(CC)c1N(COC)C(=O)CCl [Alachlor] (compound abbreviation / co-treatment: Alachlor, exposure (dose, time): 185 µM, 25 min) | 0.285 ± 0.08 | 0.259 ± 0.072 | 0.789 ± 0.14 | 0.356 ± 0.12 | – |
| CCCCCCCCCCCCCC(=O)O[C@@H]1[C@@H](C)[C@@]2(O)[C@@H](C=C(CO)C[C@]3(O)C(=O)C(C)=C[C@@H]23)[C@@H]2C(C)(C)[C@]12OC(C)=O [12-O-tetradecanoylphorbol-13-acetate] (compound abbreviation / co-treatment: TPA, exposure (dose, time): 10 nM, 30 min) | 0.309 ± 0.077 | 0.202 ± 0.031 | 1.05 ± 0.13 | 0.967 ± 0.092 | – |
| Cc1cccc2cc3ccccc3cc12 [1-Methylanthracene] (compound abbreviation / co-treatment: 1-MeA, exposure (dose, time): 70 µM, 10 min) | 0.872 ± 0.094 | 0.278 ± 0.066 | 0.818 ± 0.14 | 0.262 ± 0.067 | – |
| c1cc2ccc3cccc4ccc(c1)c2c34 [Pyrene] (compound abbreviation / co-treatment: Pyr, exposure (dose, time): 70 µM, 10 min) | 0.844 ± 0.084 | 0.375 ± 0.078 | 0.802 ± 0.099 | 0.376 ± 0.061 | – |
| O=S(=O)(O)C(F)(F)C(F)(F)C(F)(F)C(F)(F)C(F)(F)C(F)(F)C(F)(F)C(F)(F)F [Perfluorooctanesulfonic acid] (compound abbreviation / co-treatment: PFOSA, exposure (dose, time): 40 µM, 20 min) | 0.287 ± 0.045 | 0.279 ± 0.041 | 0.329 ± 0.097 | 0.289 ± 0.037 | – |
